Measured values: ChEMBL document CHEMBL1138445, “Design and synthesis of potent inhibitors of cholesteryl ester transfer protein (CETP) exploiting a 1,2,3,4-tetrahydroquinoline platform” (Bioorg Med Chem Lett, 2009)

biological target: T1, Cholesteryl ester transfer protein (Homo sapiens) (UniProt P11597); assay: Inhibition of human plasma derived CETP relative to control; design: concentration or dose not given beside the values; conditions: concentration not given here
T1 sequence (whole entry): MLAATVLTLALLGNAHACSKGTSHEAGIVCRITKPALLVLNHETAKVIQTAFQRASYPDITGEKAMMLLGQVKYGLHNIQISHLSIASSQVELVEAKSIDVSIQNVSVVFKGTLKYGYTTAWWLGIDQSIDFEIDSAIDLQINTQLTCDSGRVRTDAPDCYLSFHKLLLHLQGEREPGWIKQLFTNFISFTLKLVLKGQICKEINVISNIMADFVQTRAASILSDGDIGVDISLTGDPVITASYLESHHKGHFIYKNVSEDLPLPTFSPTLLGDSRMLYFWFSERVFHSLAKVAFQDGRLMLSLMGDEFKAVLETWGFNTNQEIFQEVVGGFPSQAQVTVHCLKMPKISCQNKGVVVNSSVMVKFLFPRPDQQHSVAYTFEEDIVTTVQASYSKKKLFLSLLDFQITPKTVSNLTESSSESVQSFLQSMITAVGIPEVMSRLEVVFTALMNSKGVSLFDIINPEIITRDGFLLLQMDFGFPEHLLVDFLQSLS

| inhibition [%] | SMILES |
| --- | --- |
| 6 | OC(CN1c2cccc(-c3cccc(OC(F)(F)F)c3)c2CCC1c1ccccc1)C(F)(F)F (single isomer, unassigned; diastereomer 2) |
| 12 | CCC1CCc2c(-c3cccc(OC(F)(F)F)c3)cccc2N1CC(O)C(F)(F)F (single isomer, unassigned; diastereomer 2) |
| 28 | OC(CN1c2cccc(-c3cccc(OC(F)(F)F)c3)c2CCC1c1cccs1)C(F)(F)F (single isomer, unassigned; diastereomer 1) |
| 46 | O[C@H](CN1c2cccc(-c3cccc(OC(F)(F)F)c3)c2CC[C@H]1c1cccc(OC(F)(F)F)c1)C(F)(F)F |
| 20 | O[C@@H](CN1c2cccc(-c3cccc(OC(F)(F)F)c3)c2CC[C@H]1c1cccc(OC(F)(F)F)c1)C(F)(F)F |
| 86 | CCc1cc(Oc2cccc3c2CCC(c2cccc(OC(F)(F)C(F)F)c2)N3CC(O)C(F)(F)F)ccc1Cl (single isomer, unassigned; diastereomer 2) |
| 93 | OC(CN1c2cccc(-c3cccc(C(F)(F)F)c3)c2CCC1c1cccc(OC(F)(F)C(F)F)c1)C(F)(F)F (single isomer, unassigned; diastereomer 1) |
| 50 | OC(CN1c2cccc(-c3cccc(OC(F)(F)F)c3)c2CCC1c1cccc(C(F)(F)F)c1)C(F)(F)F (stereo in doubt; 48) [listing 1 of 2 here] |
| 67 | OC(CN1c2cccc(-c3cccc(Cl)c3)c2CCC1c1cccc(OC(F)(F)C(F)F)c1)C(F)(F)F (single isomer, unassigned; diastereomer 1) [listing 1 of 2 here] |
| 0 | OC(CCl)CN1c2cccc(-c3cccc(OC(F)(F)F)c3)c2CCC1c1cccc(OC(F)(F)F)c1 (single isomer, unassigned; diastereomer 2) |
| 0 | OC(CN1c2cccc(-c3cccc(OC(F)(F)F)c3)c2CCC1c1cccc(OC(F)(F)C(F)F)c1)C(F)(F)F (single isomer, unassigned; 39) |
| 13 | OC(CF)CN1c2cccc(-c3cccc(OC(F)(F)F)c3)c2CCC1c1cccc(OC(F)(F)F)c1 (single isomer, unassigned; diastereomer 2) |
| 52 | OC(CN1c2cccc(-c3cccc(F)c3)c2CCC1c1cccc(OC(F)(F)C(F)F)c1)C(F)(F)F (single isomer, unassigned; diastereomer 2) |
| 13 | OC(CN1c2cccc(-c3cccc(OC(F)(F)F)c3)c2CCC1C1CCCCC1)C(F)(F)F (single isomer, unassigned; form 2) |
| 86 | OC(CN1c2cccc(-c3cccc(OC(F)(F)F)c3)c2CCC1c1cccc(OC(F)(F)C(F)F)c1)C(F)(F)F (single isomer, unassigned; 20) [listing 1 of 2 here] |
| 2 | OC(CN1c2cccc(-c3cccc(OC(F)(F)F)c3)c2CCC1C1CCCCC1)C(F)(F)F (single isomer, unassigned; form 1) |
| 86 | OC(CN1c2cccc(-c3cccc(Cl)c3Cl)c2CCC1c1cccc(OC(F)(F)C(F)F)c1)C(F)(F)F (single isomer, unassigned; diastereomer 2) [listing 1 of 2 here] |
| 37 | OC(CN1c2cccc(-c3cccc(OC(F)(F)F)c3)c2CCC1c1cccc(C(F)(F)F)c1)C(F)(F)F (single isomer, unassigned; diastereomer 2) |
| 55 | OC(CN1c2cccc(-c3cccc(Cl)c3)c2CCC1c1cccc(OC(F)(F)C(F)F)c1)C(F)(F)F (single isomer, unassigned; diastereomer 2) |
| 22 | CC(C)C(O)CN1c2cccc(-c3cccc(OC(F)(F)F)c3)c2CCC1c1cccc(OC(F)(F)F)c1 (single isomer, unassigned; diastereomer 2) |
| 70 | OC(CF)CN1c2cccc(-c3cccc(OC(F)(F)F)c3)c2CCC1c1cccc(OC(F)(F)F)c1 (single isomer, unassigned; diastereomer 1) |
| 12 | OC(CN1c2cccc(-c3cccc(OC(F)(F)F)c3)c2CCC1c1cccs1)C(F)(F)F (single isomer, unassigned; diastereomer 2) |

| inhibition [%] | SMILES |
| --- | --- |
| 100 | OC(CN1c2cccc(-c3cccc(OC(F)(F)F)c3)c2CCC1c1cccc(OC(F)(F)C(F)F)c1)C(F)(F)F (single isomer, unassigned; 19) [listing 1 of 2 here] |
| 44 | CCC1CCc2c(-c3cccc(OC(F)(F)F)c3)cccc2N1CC(O)C(F)(F)F (single isomer, unassigned; diastereomer 1) |
| 34 | OC(CN1c2cccc(-c3cccc(OC(F)(F)F)c3)c2CCC1c1cccc(OC(F)(F)F)c1)C(F)(F)F (stereo in doubt; 53) |
| 38 | COc1cccc(-c2cccc3c2CCC(c2cccc(OC(F)(F)C(F)F)c2)N3CC(O)C(F)(F)F)c1 (single isomer, unassigned; diastereomer 2) |
| 5 | OC(CN1c2cccc(-c3cccc(OC(F)(F)F)c3)c2CCC1c1ccc(OC(F)(F)C(F)F)cc1)C(F)(F)F (single isomer, unassigned; diastereomer 1) |
| 56 | OC(CCl)CN1c2cccc(-c3cccc(OC(F)(F)F)c3)c2CCC1c1cccc(OC(F)(F)F)c1 (single isomer, unassigned; diastereomer 1) |
| 68 | COc1cccc(-c2cccc3c2CCC(c2cccc(OC(F)(F)C(F)F)c2)N3CC(O)C(F)(F)F)c1 (single isomer, unassigned; diastereomer 1) [listing 1 of 2 here] |
| 37 | OC(CN1c2cccc(-c3cccc(C(F)(F)F)c3)c2CCC1c1cccc(OC(F)(F)C(F)F)c1)C(F)(F)F (single isomer, unassigned; diastereomer 2) |
| 0 | CC(C)C(O)CN1c2cccc(-c3cccc(OC(F)(F)F)c3)c2CCC1c1cccc(OC(F)(F)F)c1 (single isomer, unassigned; form 2) |
| 14 | OC(CN1c2cccc(-c3cccc(OC(F)(F)F)c3)c2CCC1c1ccc(OC(F)(F)C(F)F)cc1)C(F)(F)F (stereo in doubt; 41) |
| 11 | OC(CN1c2cccc(-c3cccc(OC(F)(F)F)c3)c2CCC1C1CCCCC1)C(F)(F)F (single isomer, unassigned; diastereomer 1) |
| 85 | N#Cc1cccc(-c2cccc3c2CCC(c2cccc(OC(F)(F)C(F)F)c2)N3CC(O)C(F)(F)F)c1 (single isomer, unassigned; diastereomer 1) [listing 1 of 2 here] |
| 68 | OC(CN1c2cccc(-c3cccc(OC(F)(F)F)c3)c2CCC1c1cccc(OC(F)(F)F)c1)C(F)(F)F (stereo in doubt; 52) [listing 1 of 2 here] |
| 13 | COCC(O)CN1c2cccc(-c3cccc(OC(F)(F)F)c3)c2CCC1c1cccc(OC(F)(F)F)c1 (single isomer, unassigned; diastereomer 1) |
| 93 | OC(CN1c2cccc(-c3cccc(F)c3)c2CCC1c1cccc(OC(F)(F)C(F)F)c1)C(F)(F)F (single isomer, unassigned; diastereomer 1) [listing 1 of 2 here] |
| 62 | CCc1cc(Oc2cccc3c2CCC(c2cccc(OC(F)(F)C(F)F)c2)N3CC(O)C(F)(F)F)ccc1Cl (single isomer, unassigned; diastereomer 1) |
| 67 | OC(CN1c2cccc(-c3cccc(Cl)c3Cl)c2CCC1c1cccc(OC(F)(F)C(F)F)c1)C(F)(F)F (stereo in doubt; 17) |
| 79 | CC(C)C(O)CN1c2cccc(-c3cccc(OC(F)(F)F)c3)c2CCC1c1cccc(OC(F)(F)F)c1 (single isomer, unassigned; form 1) |
| 21 | OC(CN1c2cccc(-c3cccc(OC(F)(F)F)c3)c2CCC1c1ccccc1)C(F)(F)F (single isomer, unassigned; diastereomer 1) |
| 21 | N#Cc1cccc(-c2cccc3c2CCC(c2cccc(OC(F)(F)C(F)F)c2)N3CC(O)C(F)(F)F)c1 (single isomer, unassigned; diastereomer 2) |
| 9 | OC(CN1c2cccc(-c3cccc(OC(F)(F)F)c3)c2CCC1c1cccc(OC(F)(F)C(F)F)c1)C(F)(F)F (single isomer, unassigned; 38) |

biological target: T2, Cholesteryl ester transfer protein (Homo sapiens, UniProt P11597); assay: Inhibition of human plasma derived CETP; type: cell-free; conditions: not given
T2 sequence (P11597 whole entry): T1 sequence (whole entry)

| IC50 [nM] | SMILES |
| --- | --- |
| 126 | COc1cccc(-c2cccc3c2CCC(c2cccc(OC(F)(F)C(F)F)c2)N3CC(O)C(F)(F)F)c1 (single isomer, unassigned; diastereomer 1) [listing 2 of 2 here] |
| 400 | OC(CN1c2cccc(-c3cccc(Cl)c3Cl)c2CCC1c1cccc(OC(F)(F)C(F)F)c1)C(F)(F)F (single isomer, unassigned; diastereomer 2) [listing 2 of 2 here] |
| 143 | OC(CN1c2cccc(-c3cccc(OC(F)(F)F)c3)c2CCC1c1cccc(C(F)(F)F)c1)C(F)(F)F (stereo in doubt; 48) [listing 2 of 2 here] |
| 125 | OC(CN1c2cccc(-c3cccc(OC(F)(F)F)c3)c2CCC1c1cccc(OC(F)(F)F)c1)C(F)(F)F (stereo in doubt; 52) [listing 2 of 2 here] |
| 117 | OC(CN1c2cccc(-c3cccc(F)c3)c2CCC1c1cccc(OC(F)(F)C(F)F)c1)C(F)(F)F (single isomer, unassigned; diastereomer 1) [listing 2 of 2 here] |
| 64 | OC(CN1c2cccc(-c3cccc(Cl)c3)c2CCC1c1cccc(OC(F)(F)C(F)F)c1)C(F)(F)F (single isomer, unassigned; diastereomer 1) [listing 2 of 2 here] |
| 33 | OC(CN1c2cccc(-c3cccc(OC(F)(F)F)c3)c2CCC1c1cccc(OC(F)(F)C(F)F)c1)C(F)(F)F (single isomer, unassigned; 19) [listing 2 of 2 here] |
| 300 | OC(CN1c2cccc(-c3cccc(OC(F)(F)F)c3)c2CCC1c1cccc(OC(F)(F)C(F)F)c1)C(F)(F)F (single isomer, unassigned; 20) [listing 2 of 2 here] |
| 235 | N#Cc1cccc(-c2cccc3c2CCC(c2cccc(OC(F)(F)C(F)F)c2)N3CC(O)C(F)(F)F)c1 (single isomer, unassigned; diastereomer 1) [listing 2 of 2 here] |
